Reference: article PMC2360155, “Novel retinoic acid metabolism blocking agents have potent inhibitory activities on human breast cancer cells and tumour growth” (British Journal of Cancer, 2007)

Legend:
[1] = tested on: T47D cells; assay: Cell cycle analysis by flow cytometry (PI), T47D; assay type: cell-based, human; details: 5 μM, 6 days (4-HPR 4 days)
Experimental: MCF-7 and T47D cells were plated in T-25 flasks and allowed to adhere for about 18 h. The cells were then synchronised by growing them in low-serum OPTI-MEM I medium for 2 days. […] After 6-day treatment, the cells were trypsinised, washed twice with PBS, centrifuged at 2500 r.p.m. to obtain a cell pellet. The cells (about 1–2 × 10^6) were fixed with 3 ml of 70% ethanol (by adding drop-wise and taking care that the cells are not clumped together). Cells were kept at −20°C until further analysis (at least overnight). Next, cells (∼1–2 × 10^6) were stained with 1 ml of propidium iodide (PI) (50 μg ml^−1)/RNase (100 μg ml^−1) solution and after about half an hour the fluorescence of stained nuclei (15 000 events) was analysed by flow cytometry (Becton Dickinson FACScan Instrument and quantification by Modfit LT version 3.1 software) with excitation wavelength of 488 nm. The percentage of G1, S, G2/M and sub-G1 (apoptotic cells) in the population of treated and untreated cells were determined.

[2] = tested on: cyclin D1; assay: Western blotting for cyclin D1 in MCF-7 cells; assay type: cell-based, human; details: 6 days (4HPR 4 days)
Experimental: At the end of the treatment, cells were scrapped and collected by washing with ice-cold PBS in a centrifuge tube. Cells were centrifuged at 2500 r.p.m. for 10 min, the pellet was again washed with ice-cold PBS and centrifuged. The cell pellet was then suspended in chilled cell lysis buffer (0.1 M Tris–HCl, 0.5% Triton X-100, protease inhibitor cocktail) and sonicated on ice for 10–15 s. The homogenate was kept on ice for 30 min and then centrifuged at 13 000 r.p.m. for 30 min. The supernatant was used as cell lysate. The cell lysates were stored at −80°C. Protein concentration of the cell lysates was determined using Bio-Rad protein assay reagents.
Protein lysates from MCF-7 and T47D cells were subjected to sodium dodecyl sulphate–polyacrylamide gel electrophoresis (SDS–PAGE) and immunoblotted for different proteins. […] Immunoreactive bands were visualised using the enhanced chemiluminescence detection reagents and analysis system (Amersham Bioscences) according to the manufacturer's instructions and quantified by densitometry using ImageQuant software version 5.
Figure 5 Western blotting of whole-cell lysates of treated MCF-7 and T47D cells for the expression of Cyclin D1. […] Numbers below the blot show fold decrease in expression of the protein as analysed by ImageQuant densitometry analysis. […]

[3] = tested on: MCF-7 cells; assay: TUNEL apoptosis assay, MCF-7; assay type: cell-based, human; details: 5 μM; 6 days; control about 1.5%
From the text: (§1) The cells were rinsed with PBS and then the stained-labelled apoptotic cells were mounted using DAPI (diamidino-2-phenylindole 2HCl)-glycerol and visualised with a fluorescent microscope using two filters (1) for TUNEL stained cells, and (2) for DAPI stained cells, which represents all the cells (nuclei). Fluorescent microscope model was Nikon, Eclipse E400 and the software was SPOT advanced version 3.5.5 by Diagnostic Instruments Inc. (Sterling Heights, MI, USA).
(§2) Figure 6 Graphs showing apoptosis induced in (A) MCF-7 and (B) T47D cells as determined by TUNEL. […] TUNEL-stained apoptotic cells were counted against the DAPI stained cells to obtain percentage apoptosis. The experiments were repeated thrice with similar results. Error bars show s.e.m of three different fields of treated cells, statistically significant ^*P<0.01 and ^**P<0.001 vs control.

[4] = tested on: T47D cells; assay: TUNEL apoptosis assay, T47D; assay type: cell-based, human; details: 5 μM; 6 days; control about 1.5%
From the text: as §1, §2

[5] = tested on: MCF-7 cells; parameters: method as in Patel et al. (2004); details: inhibition of cell proliferation by 50%; ref Patel et al. (2004); read-out: Cellular IC50, MCF-7; cited from earlier work
[6] = tested on: MDA-MB-231 cells; parameters: method as in Patel et al. (2004); details: inhibition of cell proliferation by 50%; ref Patel et al. (2004); read-out: Cellular IC50, MDA-MB-231; cited from earlier work

CC1=C(/C=C/C(C)=C/C=C/C(C)=C/C(=O)Nc2ccc(O)cc2)C(C)(C)CCC1 [Compound 4-HPR, 4-Hydroxyphenyl retinamide, reference compound]
G2/M (%) [1]: 16.75±4.39% | Go/G1 (%) [1]: 76.94±3.47% | S (%) [1]: 6.32±0.93% | Sub-G1 (%) [1]: 30.25±6.66% | Decrease of cyclin D1 protein expression compared with untreated control [2]: > 80% | Induction of apoptosis (TUNEL), MCF-7 [3]: 20–25% | Induction of apoptosis (TUNEL), T47D [4]: 20–25% | IC50 [5]: 148 nM | IC50 [6]: 1400 nM
